System: isolated colon section
Details: rabbit, in vivo
Description: Each rabbit was anesthetized using an intramuscular injection of xylazine and ketamine, given at 5-8 mg/kg and 35-40 mg/kg, respectively. The abdomen and the cervical area was then shaved. A surgical cutdown was performed to place a catheter into the jugular vein for maintaining anesthesia throughout the entire exposure period. The maintenance anesthesia was sodium pentobarbitol given at 13 mg/kg as needed. An endotracheal tube was then inserted to facilitate normal respiration.
In the anesthetized animal model a section of the colon, immediately proximal to the cecum, was isolated with the mesenteric vascular system intact. Two ligatures were placed approximately 15-20 cm apart around the colon section. The isolated section was then freed from the remaining intestine by cutting between the ligatures, taking care to leave the vascular and nervous systems intact. A longitudinal incision was made along the entire length of the isolated colon section and the fecal material removed. The isolated colon section is then placed onto a three-cell test chamber which forms the floor of the test cell. The test cell is continuously perfused with Lactated Ringer's solution at a rate of 2.2 ml per minute using a Model 975 Harvard pump. The test chamber is allowed to equilibrate for one hour to maintain a constant temperature of 37° C. (±2° C.). […]
A quantity of the test material was chosen such that the total milligram amount of aspirin delivered over the 6-hour exposure period was equal to the total dose of aspirin provided by the positive control.
After 6 hours of continuous exposure, each rabbit was euthanized using an intravenous injection of sodium pentobarbitol given at approximately 100 mg/kg. The isolated section of exposed colon was removed from the intestine and evaluated for macroscopic evidence of irritation for both degree (0-4) and area (0-6.40 cm^2). […]

Structure (SMILES): CC(=O)Oc1ccccc1C(=O)O [Aspirin, aspirin]
- Mean Irritation Area: 4.48 cm^2
- Mean Irritation Index: 17.93
- Mean Irritation Source: 4.00
